Values quoted from earlier work in patent US6306864A, “Atropisomers of 3-aryl-4(3H)-quinazolinones and their use as AMPA-receptor antagonists” (Pfizer Inc., priority 2000, dated 2001).

Legend:
[1] = system: rat global ischemia models
[2] = system: global and focal ischemic damage; conditions: focal and global ischemia models

| SMILES | neuroprotection in rat global ischemia models [1] | prevention of global and focal ischemic damage [2] |
| --- | --- | --- |
| CC1=NN=C(c2ccc(N)cc2)c2cc3c(cc2C1)OCO3 [GKYI 52466] | effective neuroprotective agent |  |
| NS(=O)(=O)c1cccc2c1c([N+](=O)[O-])cc1[nH]c(=O)c(=O)[nH]c12 [NBQX, 2,3-dihydroxy-6-nitro-7-sulfamoylbenzo[f-]quinoxaline] |  | effective in preventing global and focal ischemic damage |
